Measured values reported in US20080312311A1, “Crystalline forms of 3-(2R-tetrahydrofuryl-methyl)-2-thioxanthine” (ASTRAZENECA AB, priority 2007, published 2008).

Key:
[1] = relative stability of crystal forms versus temperature; format: physicochemical
[2] = polymorph transformation on stirring in solution; format: physicochemical

O=c1[nH]c(=S)n(C[C@H]2CCCO2)c2nc[nH]c12 [3-(2R-tetrahydrofuryl-methyl)-2-thioxanthine]
relative stability of the crystalline form ([1]; at ambient temperature, such as room temperature, Form A versus Form B): more stable | relative stability of the crystalline form ([1]; at temperatures over +65° C., Form B versus Form A): more stable | polymorph transformation on stirring in solution ([2]; stirring in a solution about or above 60° C.): transforms it to polymorph B | polymorph transformation on stirring in solution ([2]; stirring in solutions about or below 60° C.): transforms it to polymorph A
